The source made the active and inactive calls. The calls are words filed in the database; no cut-off is given here.

Assay [1] has as its system SGC-7901. In words: Induction of cell cycle arrest in human SGC-7901 cells assessed as accumulation of cells at G2/M phase at 5 uM incubated for 24 hrs by PI staining based flow cytometric analysis (reference value: 0.18%). The format is functional. On the technique in general: Flow cytometry measures light scatter and fluorescence of single cells or particles in a stream.

The test system of assay [2] is MDA-MB-231. In words: Induction of autophagy in human MDA-MB-231 cells assessed as fold increase in Lamp1 level at 5 uM measured after 6 hrs by Western blot analysis relative to control. The format is functional.
Assay [3] has as its system MDA-MB-231. Description: Induction of cell cycle arrest in human MDA-MB-231 cells assessed as accumulation of cells at G2/M phase at 5 uM incubated for 24 hrs by PI staining based flow cytometric analysis (reference value: 7.47%). The format is functional.
For assay [4], the system named is SGC-7901. Description: Induction of cell cycle arrest in human SGC-7901 cells assessed as accumulation of cells at G0/G1 phase at 50 uM incubated for 24 hrs by PI staining based flow cytometric analysis (reference value: 59.67%). Format: functional.
The test system of assay [5] is SGC-7901. Description: Induction of cell cycle arrest in human SGC-7901 cells assessed as accumulation of cells at G0/G1 phase at 20 uM incubated for 24 hrs by PI staining based flow cytometric analysis (reference value: 59.67%). The format is functional.
For assay [6], the system named is MDA-MB-231. Description: Induction of autophagy in human MDA-MB-231 cells assessed as fold increase in LC3I/II protein level at 5 uM measured after 6 hrs by Western blot analysis relative to control. The format is functional.
Assay [7] relates to SGC-7901. In words: Induction of cell cycle arrest in human SGC-7901 cells assessed as accumulation of cells at S phase at 20 uM incubated for 24 hrs by PI staining based flow cytometric analysis (reference value: 40.15%). Format: functional.
In assay [8] the test system is MDA-MB-231. Description: Induction of autophagy in human MDA-MB-231 cells assessed as fold increase in LC3I/II protein level at 10 uM measured after 6 hrs by Western blot analysis relative to control. The format is functional.
Assay [9] has as its system MDA-MB-231. In words: Induction of cell cycle arrest in human MDA-MB-231 cells assessed as accumulation of cells at S phase at 20 uM incubated for 24 hrs by PI staining based flow cytometric analysis (reference value: 29.80%). Format: functional.
Assay [10] concerns MDA-MB-231. In words: Induction of autophagy in human MDA-MB-231 cells assessed as fold increase in Lamp1 level at 10 uM measured after 6 hrs by Western blot analysis relative to control. Format: functional.
Assay [11] has as its system SGC-7901. In words: Induction of cell cycle arrest in human SGC-7901 cells assessed as accumulation of cells at S phase at 5 uM incubated for 24 hrs by PI staining based flow cytometric analysis (reference value: 40.15%). Format: functional.
For assay [12], the system named is SGC-7901. Description: Cytotoxicity against human SGC-7901 cells assessed as cell inhibition measured after 72 hrs by MTT assay. The format is functional, cell-based. The note with it: SGC-7901, 72 h.
Assay [13] has as its system MDA-MB-231. Description: Induction of cell cycle arrest in human MDA-MB-231 cells assessed as accumulation of cells at G0/G1 phase at 20 uM incubated for 24 hrs by PI staining based flow cytometric analysis (reference value: 62.73%). Format: functional.
Assay [14] relates to MDA-MB-231. In words: Antiproliferative activity against human MDA-MB-231 cells assessed as cell viability in presence of 3-MA at 10 to 50 uM measured after 72 hrs by MTT assay. The format is functional, cell-based. The note with it: dose 10-50 µM.
The subject of assay [15] is SGC-7901. Description: Induction of cell cycle arrest in human SGC-7901 cells assessed as accumulation of cells at G2/M phase at 20 uM incubated for 24 hrs by PI staining based flow cytometric analysis (reference value: 0.18%). Format: functional.
Assay [16] concerns MDA-MB-231. In words: Induction of autophagy in human MDA-MB-231 cells assessed as fold increase in LC3I/II protein level at 15 uM measured after 6 hrs by Western blot analysis relative to control. The format is functional.

The IC50 is the concentration that gives 50% inhibition. In the case of `COc1ccc(Cn2c3ccccc3c3ccnc(C(=O)c4ccccc4)c32)cc1`, the Activity in the assay with SGC-7901 [1] worked out at 18.43%; in the assay on MDA-MB-231 [3], 14.71%; with SGC-7901 [4] it was 4.23%; in the assay on SGC-7901 [5], 6.9%; with SGC-7901 [7], 32.61%; in the assay on MDA-MB-231 [9], 22.49%. Further, the Activity in the assay with SGC-7901 [11] was 40.21%; in the assay on MDA-MB-231 [13] it was 29.13%; in the assay on SGC-7901 [15], 60.49%. The “fold change (FC)” value with MDA-MB-231 [2] was found to be 1.04; in the assay with MDA-MB-231 [6] it was 1.12; in the assay with MDA-MB-231 [8] it was 1.39; in the assay with MDA-MB-231 [10], 1.21; in the assay with MDA-MB-231 [16] it was 1.51. Further, the IC50 in the assay on SGC-7901 [12] was found to be 12.1 µM. In addition, in the assay on MDA-MB-231 [14], the result was inactive.

The values are drawn from ChEMBL document CHEMBL5385881, “Design, synthesis, and discovery of Eudistomin Y derivatives as lysosome-targeted antiproliferation agents” (Eur J Med Chem, 2023).
